Laboratory results from patent publication EP4600262A1, “KERATIN YK93-5, PREPARATION METHOD, AND PHARMACEUTICAL COMPOSITION AND USE THEREOF” (INSTITUTE OF MATERIA MEDICA, CHINESE ACADEMY OF MEDICAL …, priority 2022, dated 2024).
Structures can show the parent of a compound that is named as a salt.

How the values were obtained:
B16F10 melanoma = settings: CTX 0.1 g/kg once a week, YK93-5 2 g/kg daily
Protocol: • Preparation of experimental animals: The experimental animals were adapted to the experimental environment (temperature 22°C±2°C, relative humidity 50%±2%) for 1 day. • Subcutaneous inoculation of B16F10 cell suspension to replicate a mouse melanoma model: Under sterile conditions, the tumor block was removed, ground into tumor fluid, the concentration was adjusted with physiological saline to 2.58 × 10^6 /ml, and 0.2 ml was taken to evenly inoculate subcutaneously on the armpit back of mice. On the next day, the animals were randomly grouped and administration began (recorded as Day 0). […] On the day of treatment, weight was measured, 20µL of blood was obtained by taking blood from the eye socket and the blood routine analysis was performed, the tumor block was peeled off, weighed and photographed, and the tumor suppression rate was calculated.
The tumor suppression rate [(The average weight of the tumor in the normal control group - the average weight of the tumor in the experimental group) / The average weight of the tumor in the normal control group × 100 %] and average value, standard deviation and standard errors of tumor weight were calculated. The data from the groups were compared with each other by T.TEST, and P<0.05 was considered as a significant difference.

mouse pain model = mouse pain model (1% acetic acid writhing); assay type: in vivo, Male Kunming mice; settings: within 15 minutes after 1% acetic acid intraperitoneally; Tramadol Hydrochloride 50mg/kg, YK93-5 2g/kg by gavage once a day for 7 days
Protocol: 30 minutes after the last administration, 1% acetic acid was administered intraperitoneally, and the writhing times of mice within 15 minutes was recorded, and the inhibition rate of drug-induced writhing reaction was calculated. The observation criteria were concave abdominal cavity, extended hind limbs, and raised buttocks.
The inhibition rate was calculated by (Mean number of writhing reactions in the normal control group - Mean number of writhing reactions in the treatment group)/Mean number of writhing reactions in the normal control group *100%. The mean value, standard deviation, and standard error of the number of writhing was recorded, and the data from the groups were compared with each other by T.TEST, and P<0.05 was considered as a significant difference.

[1] = test system: mouse prostatic hyperplasia model; experiment: mouse prostatic hyperplasia model (propionate testosterone, androgen loading); assay type: in vivo, Male Kunming mice; settings: finasteride 1mg/kg, YK93-5 0.5g/kg
Protocol: • Animals: Male Kunming mice, weight: 18-20 grams • Drugs: propionate testosterone injection (Ningbo Second Hormon Factory); finasteride (Merck Sharp & Dohme, MSD), YK93-5 • Instruments: electronic balance, timer
• Normal control group; • Model group: Androgen loading Model; • Positive control group: finasteride (1mg/kg) group; • YK93-5 (0.5g/kg) group.
• Preparation of experimental animals: The experimental animals were adapted to the experimental environment (temperature 22°C±2°C, relative humidity 50%±2%) for 1 day. • Subcutaneous injection of propionate testosterone to replicate mice prostatic hyperplasia model: Mice were randomly grouped 10-12 in each group before the model being established. Propionate testosterone (0.01mg/kg) in soybean oil was injected subcutaneously, once a day for 30 consecutive days. Mice in the normal control group were injected subcutaneously with an equal volume of sodium carboxymethyl cellulose. Immediately after the model was established, finasteride 1mg/kg, or YK93-5 0.5g/kg were orally administered. Mice were weighed on the next day. After 30 days of administration, mice were weighed, executed. The prostate was excised through a median incision in the lower abdomen, the wet weight was weighed, and the prostate index was calculated by the wet weight of the prostate (mg)/body weight of the mouse (g). […] with 4% paraformaldehyde, embedded in paraffin, and cut into thin slices with the largest surface. Hematoxylin and eosin staining were used to examine the pathological changes of tissue slices.
The average value, standard deviation and standard error of the prostate index and pathological score in each group were calculated. The data from the groups were compared with each other by TTEST, and P<0.05 was considered as a significant difference.

Protocol for Lewis lung cancer: • Preparation of experimental animals: The experimental animals were adapted to the experimental environment (temperature 22°C±2°C, relative humidity 50%±2%) for 1 day. • Subcutaneous inoculation of Lewis cell suspension to replicate mouse breast cancer model: The Lewis tumor tissue was ground into a suspension with a glass homogenizer, the tumor suspension was aspirated with a syringe, the number of live cells was calculated, the concentration of the cells was adjusted to 2.6*10^6/ml with physiological saline, and then the suspension was injected to the left armpit of the mouse with 0.2 ml/mouse. […] On the day of the treatment, the weight was measured, 20µl of blood was obtained from the orbital blood and the routine blood analysis was performed. The tumor blocks were stripped, weighed and photographed, and the tumor suppression rate was calculated.
The tumor suppression rate [(The average weight of the tumor in the normal control group - the average weight of the tumor in the experimental group) / The average weight of the tumor in the normal control group × 100 %] and the average value, standard deviation and standard errors of tumor weight were calculated. The data from the groups were compared with each other by T.TEST, and P<0.05 was considered as a significant difference.

Structure (SMILES): O=P1(N(CCCl)CCCl)NCCCO1 (centres unmarked) [Cyclophosphamide]
- Tumor weight (B16F10 melanoma): 0.26 ± 0.11 g
- Change of weight (g) After administration (Lewis lung cancer; body weight after administration, cyclophosphamide 0.1 g/kg intraperitoneally single time, YK93-5 2 g/kg intragastric daily for 17 days): 21.07 ± 1.61 g
- Change of weight (g) Before administration (Lewis lung cancer; body weight before administration): 20.52 ± 1.83 g
- Tumor suppression (%) (Lewis lung cancer; cyclophosphamide 0.1 g/kg intraperitoneally single time, YK93-5 2 g/kg intragastric daily for 17 days): 91.22%

Structure (SMILES): COc1cccc(C2(O)CCCCC2CN(C)C)c1 (centres unmarked) [Tramadol Hydrochloride]
- Number of writhing (mouse pain model): 1.75±4.56

Structure (SMILES): CC(C)(C)NC(=O)[C@H]1CC[C@H]2[C@@H]3CC[C@H]4NC(=O)C=C[C@]4(C)[C@H]3CC[C@]12C [finasteride]
- wet weight of the prostate ([1]; after 30 days of oral administration): 40.4 ± 9.2 mg
- pathological damage of prostatic hyperplasia (histopathology, H&E) ([1]; compared with the model group, 30 days oral): the trend of hyperplasia improves, but there is no statistical difference
- prostate index ([1]; wet weight of the prostate (mg)/body weight of the mouse (g), 30 days oral): 0.95±0.24
